Test results from patent US12564589B2, “Methods for treating cancer, reducing side effects of cancer treatment, and preventing the recurrence of cancer” (Florida State University Research Foundation, Inc., priority 2024, dated 2026).

Columns and labels:
[1] = system: H3.3KD cells; test: Viability by flow cytometry (Live/Dead staining) after DNA damaging agents; format: cell-based, human
Method: FIGS. 1A-1G show replacement histone variant H3.3 is rapidly recruited to DNA damage sites and cells deficient in H3.3 accumulate endogenous damage, while also being hypersensitive to DNA damaging agents. FIG. 1A: Histone variant H3.3 is rapidly recruited to sites of laser induced DNA damage in living cells. HCT116 human colon carcinoma cells were transiently co-transfected with expression constructs for H3.3-mEmerald and RFP-PCNA. […] Percent recruitment was calculated by dividing the number of cells recruiting H3.3 by the number of cells recruiting PCNA in the same cells. n=number of cells analyzed. […] The percentage knockdown for each clone shown at the bottom of the lanes was quantitated by measuring fluorescence intensity of the H3.3 band relative to the signal from the H4 band on a Li-Cor Odyssey imager. […] The presence of endogenous damage in H3.3KD and control LUC cells was determined by Western blotting of whole cell extracts using the indicated antibodies. […] 48 hours after MMS treatment, the viability of the cells was scored by flow cytometry using the violet fluorescent Live/Dead cell staining kit (Invitrogen) following the manufacturer's instructions. […] Significant differences between treatments are indicated by p values determined using a t-test. […]

[2] = system: Budding yeast strains carrying H3G34R mutant; test: Yeast viability by colony enumeration after genotoxic agents; format: cell-based; details: 90 minutes treatment
Method: FIGS. 8A-8G show deficiency of H3.3 in cells from multiple species results in accumulation of genomic instability and endogenous DNA damage, as well as hypersensitivity to DNA damaging agents. (FIG. 8A) Enhanced rate of micronuclei formation in H3.3KD cells. Micronuclei score was determined as described previously from 1000 LUC and H3.3KD cells. The difference between LUC and H3.3 was trending towards significance (p=0.12). (FIG. 8B) Increased incidence of lagging chromosomes during mitosis in H3.3KD cells. Quantitation of lagging chromosomes from 100 anaphases in LUC and H3.3KD cells is shown. (FIG. 8C) Flies deficient in H3.3 accumulate endogenous DNA damage. Western blot showing the levels of γH2A.v (the fly homolog of mammalian γH2A.X) in adult flies of the indicated genotypes: wild-type (WT; Oregon-R), heterozygous (het, with just one H3.3 allele) and rescue (res, which completely lacks H3.3, but its sterility is rescued by an extra copy of H3.2 driven by the H3.3B promoter). A sample from flies treated with 10 Gy IR is included as a positive control for γH2A.v signal. […] 100 third instar Drosophila larvae from WT and heterozygous (H3.3 Het) genotype carrying just one out of four alleles of H3.3 were exposed to either IR or ultra violet (UV) light and their development into adult flies was monitored for over two weeks. […] Viable flies remaining were scored daily for a week. […]

| SMILES | sensitivity of H3.3 KD cells compared to control LUC cells ([1]; 0.5 mM Mimo) | sensitivity of H3G34R yeast compared to wild-type [2] | sensitivity of H3.3 KD cells compared to control LUC cells ([1]; 0.0175% MMS for 2 hours, viability 48 hours after) |
| --- | --- | --- | --- |
| NC(Cn1ccc(=O)c(O)c1)C(=O)O (stereo not drawn) [Mimosine] | very sensitive |  |  |
| COS(C)(=O)=O [MMS, methyl methane sulfonate] |  | hypersensitive | very sensitive |
